According to patent US9084748B2, “Biopolymer produced by fermenting the extract of soybean with folic acid and a composition containing thereof” (Damy Chemical Co., Ltd., priority 2007, dated 2015):

Columns and labels:
[1] = test system: human dermal fibroblast neonatal (HDF-N); assay: Cell growth of fibroblast primary culture, neutral red (NR) assay; format: cell-based; conditions: fibroblasts incubated 24 hours
Source text: It was identified through the current experiment that the folyl EFS promotes cell growth and collagen biosynthesis. A cell line used in the current experiment was a primary culture of a fibroblast (human dermal fibroblast neonatal; (HDF-N; Gibco, Cooper, M. L. et al, Biomaterials 12:243, 1991), and a culture media used was a fibroblast neonatal growth medium (FGM, KDR Co.). […] Shao-Zeng Z. et al., Cell Biology and Toxicology, 6:2, 1990) (see FIG. 7).

[2] = test system: human dermal fibroblast neonatal; assay: Collagen biosynthesis promotion, human collagen type-1 ELISA; format: cell-based
Method: The folyl EFS and the human dermal fibroblast neonatal were incubated for 3 days, and the supernatant was isolated and collagen was quantified using a human collagen type-1 ELISA kit (Cosmo Bio Co.). A sample used in the current experiment was a 1% solution containing Composition 2 used in Preparation Example 2, and 4% of 1,3-butyleneglycol was added to the sample and preserved. Also, to compare with the effect of the folyl EFS, a folic acid solution in which the concentration of the folic acid was the same as that in the folyl EFS was prepared. In addition, 10 ng/ml of transforming growth factor-beta (TGF-β; Sigma), which is known as a promotion factor for collagen biosynthesis, was compared with the folyl EFS.
The collagen biosynthesis promotion effect of the folyl EFS is shown in the bar chart of FIG. 8. A folyl EFS produced as a cosmetic source material was a 1% liquid product. In FIG. 8, the concentration (%) of the x-axis denotes a ratio of the volume of the folyl EFS to the volume of the entire culture solution (v/v, %). The results are represented as the ratio of the value of collagen of each group with respect to the average value of collagen in a group not treated with anything when the average value of collagen in the group not treated with anything was set at 100%. […]

mice (BALB/C, male) = assay: Anti-allergic (anti-anaphylaxis) test, C48/80 intraperitoneally injected; format: in vivo
Method: C48/80 is a material that stimulates immune organs and induces acute anaphylaxis within 30 minutes when intraperperitoneally injected. In the current experiment, the number of test animals which died within a predetermined time period (24 hours) after the intraperperitoneal injection of the C48/80 was counted. In the current experiment, 10 mice (BALB/C, male) were used per group, and each group was tested for three times and the average value of the three experimental results was represented as a death ratio (%).

[3] = test system: mast cells (ATCC TIB-64, P815); assay: Quantifying histamine secreted by C48/80-stimulated mast cells (ELISA); format: cell-based
Method: This experiment was performed to identify how much the folyl EFS reduces the amount of histamine secreted when mast cells are treated with a stimulant. […] FIG. 2 is a bar chart showing the results of the experiment. […] As described above, it can be seen that the folyl EFS has an excellent anti-histamine (anti-allergic) effect.

Nc1nc2ncc(CNc3ccc(C(=O)N[C@@H](CCC(=O)O)C(=O)O)cc3)nc2c(=O)[nH]1 [folic acid] was tested, and the “cell growth rate when concentration gradually increased” value [1] was “the cell growth rate was not increased accordingly” and the “collagen biosynthesis promotion effect” value ([2]; folic acid solution at same folic acid concentration as in folyl EFS) was “did not occur within an error range”.
O=C(O)c1cc(=O)c2c(OCC(O)COc3cccc4oc(C(=O)O)cc(=O)c34)cccc2o1 [sodium cromolyn] was tested, and the “inhibition of development of anaphylaxis” value (mice (BALB/C, male); 1% sodium cromolyn) was “up to 80%”, the “inhibition of sequela of anaphylaxis” value (mice (BALB/C, male); result in words) was “did not inhibit sequela of anaphylaxis” and the “ED50 value (histamine secretion inhibition)” value ([3]; C48/80-stimulated mast cells, ELISA) was 0.5%. The “histamine secretion inhibition rate” value ([3]; about 0.5% of the sodium cromolyn) was 50%.
For TGF-β, the “maximum promotion rate of collagen biosynthesis” value ([2]; at 0.63% (v/v, %), 3 days, relative to untreated group set at 100%) was 22%.
